The values that follow come from US20100076091A1, “COMPOSITION AND METHOD FOR SUPPRESSING LIPOOXIDATION OF ERYTHROCYTE” (TOHOKU UNIVERSITY, priority 2007, published 2010).

The conditions of series [1]: human, in vivo. How it is done:
Blood (12 mL) of a subject after the subject had fasted for 12 hours was collected using EDTA. Blood was centrifuged (1000 g, 10 minutes, 4° C.), so that 6 mL of erythrocytes was obtained. To wash erythrocytes, 5-fold volume (30 mL) of physiological phosphate buffer (pH 8.0) was added and then centrifugation was carried out (2300 g, 10 minutes, 4° C.), thereby removing supernatants. This procedure was repeated 3 times, so that 4 mL of packed cells (washed erythrocytes) was obtained. • 1-2. Extraction of Carotenoid from Erythrocytes and Quantitative Determination Thereof
Two (2) mL of water was added to 2 mL of packed cells (washed erythrocytes) for hemolysis of erythrocytes. […] Fifty (50) μL of the solution was subjected to the following UV-HPLC analysis, so that erythrocyte carotenoid was quantitatively determined. […]
To examine whether the ingested xanthophyll would be actually transferred to erythrocytes so as to suppress accumulation of peroxidized phospholipids, lutein that exists at the highest concentration among human erythrocyte xanthophyll members was administered to 6 normal subjects (3 male subjects and 3 female subjects) for 4 weeks. […] Erythrocytes were separated from the thus obtained blood and then the concentration of erythrocyte lutein and the peroxidized phospholipid level were measured. […]

The test system of series [2] is erythrocytes. As to the kind of experiment: Search for ingredients capable of preventing lipoperoxidation of erythrocytes.
The subject of series [3] is peroxidized phospholipids in erythrocytes. As to the kind of experiment: Erythrocyte peroxidized phospholipid level (PCOOH, PEOOH) after oral ingestion, by CL-HPLC. The series is classed as in vivo, human. The note with it: within 4 weeks after the start of ingestion, lutein 9.7 mg/day; 6 normal subjects. How it is done: Packed cells (washed erythrocytes, 1.5 mL) prepared in a manner similar to that in 1-1 of Example 1 were added to a 50-mL screw cap glass centrifugation tube and then 1.5 mL of a 0.1 mM EDTA-2Na aqueous solution was added, followed by gentle agitation. The solution was allowed to stand in ice for 15 minutes and then 15 mL of isopropanol was added, followed by gentle agitation. The solution was allowed to stand for 30 minutes in ice and then 15 mL of chloroform was added. After vortexing, the solution was allowed to stand for 30 minutes in ice and then centrifuged (1000 g, 10 minutes, 4° C.). […] Solvent removal was carried out under nitrogen and then the total lipid level was measured by a gravimetric method. […]
Peroxidized phospholipids (phosphatidyl choline hydroperoxide (PCOOH) and phosphatidylethanolamine hydroperoxide (PEOOH)) in erythrocytes were measured by chemiluminescence-high performance liquid chromatography (CL-HPLC). […] After separation of PCOOH and PEOOH from other lipid components by HPLC, PCOOH and PEOOH are reacted with a luminescence reagent and then hydroperoxide-group-derived chemiluminescence is detected and quantitatively determined. Specifically, the above obtained chloroform/methanol (2:1, v/v) solution (40 μL) of total erythrocyte lipids was subjected to CL-HPLC and then peroxidized phospholipids were quantitatively determined. […]

In the case of `CC1=C(/C=C/C(C)=C/C=C/C(C)=C/C=C/C=C(C)/C=C/C=C(C)/C=C/C2=C(C)C[C@@H](O)CC2(C)C)C(C)(C)C[C@H](O)C1` [zeaxanthin], the “concentration of erythrocyte zeaxanthin, average” value in series [1] came out at 52 pmol/g hemoglobin. For `Cc1c(C)c2c(c(C)c1O)CC[C@@](C)(CCC[C@H](C)CCC[C@H](C)CCCC(C)C)O2` [α-tocopherol], the “prevention of lipoperoxidation of erythrocytes” value in series [2] was “has no such effects”. Take `CC1=C[C@H](O)CC(C)(C)[C@H]1/C=C/C(C)=C/C=C/C(C)=C/C=C/C=C(C)/C=C/C=C(C)/C=C/C1=C(C)C[C@@H](O)CC1(C)C` [lutein]: the “peroxidized phospholipid level in erythrocytes compared with the level before the start of ingestion” value in series [3] is on record as “significantly decreased”.
